The test relates to Vero cells. Type of test: cell-based.

The source of these data is patent US6631283B2 (priority 2000, dated 2003).

Chlorin e6 [free Ce6]: the “cell-associated Ce6-specific fluorescence (delivery of Ce6 to cells)” value is given as “no detectable Ce6-specific fluorescence”.
